Results reported in patent US10383885B2, “Method for treating or preventing dry eyes” (priority 2015, dated 2019).

Tests used:
NGF = test: Tear NGF protein expression in BAC induced dry eye mice (western blot); assay type: in vivo; settings: tear of BAC induced dry eye mice; eye drops 2, 5 or 10 μg/ml three times a day for 10 days
Protocol: Tear was collected from right eye of BAC induced dry eye mice by 10 μl PBS wash. Mice treated eyes drop of PBS as control and different concentration Compound A for 10 days. NGF protein was a positive control. 5 μl tear volume used in western blot.
The total protein concentration was determined by 1×Braford assay. To denature, use a loading buffer(7 ml 0.5M Tris pH6.8, 3 ml Glycerol, 1 g 10% SDS, 0.93 g DTT, […] 0.05% bromophenol blue, 10 ml), and boil the mixture at 95-100° C. for 5 minutes. Total protein was loaded 20-40 μg per mini-gel (12% SDS-polyacrylamide gel) well for electrophoresis. Then transfer the proteins into polyvinylidene difluoride membrane and blocking the membrane with 5-10% nonfat dried milk in TTBS. The membrane was incubated with the primary antibody overnight at 4° C. by shaking. Wash the membrane several times in TTBS to remove residual primary antibody. And the membrane was incubated with secondary antibody for 2 hours at room temperature.
The protein levels were determined by chemiluminescene detection system and analysis by Imagequant software. The results are shown in FIG. 4. *P<0.05, **P<0.01, ***P<0.001 compared to the control, Student's t-test. Data are expressed as mean±SD (n=4).

BAC induced dry eye mice [1] = test: Benzalkonium chloride induced dry eye mice model (2), phenol red thread tear test; assay type: in vivo, Male BALB/c mice; settings: 0.3% BAC day 1 to 7; eye drops 5, 10 μg/ml thrice-daily, day 15 to 19; topical, right eye
Protocol: Benzalkonium Chloride Induced Dry Eye Mice Model (2)
(§1) Male BALB/c mice (9 weeks) was treated with thrice-daily (9:00, 13:30, 18:00) topical administration of 5 ul of 0.3% BAC in right eyes, mice was treated with PBS as control group, from day 1 to 7. And compound A (5, 10 μg/ml) was treated with thrice-daily (9:00, 13:30, 18:00) topical administration of 5 ul in right eyes, and PBS as control group, from day 15 to 19.
(§2) Phenol red thread tear test was used. The thread is yellow (acidic) and when it comes in contact with tears it changes to a light red color. Forceps were used to insert folded portion of the thread into the palpebral conjunctiva of the eye ⅓ of the distance from the lateral canthus of the lower eye lid. After 15 s, the thread was removed and the entire wet (Red) portion was measured. The phenol red thread test was on 14, 18, 20 day. The results are shown in FIG. 3. *P<0.05, **P<0.01 compared to the control, Student's t-test. Data are expressed as mean±SD (n=5-6).

BAC induced dry eye mice [2] = test: Benzalkonium chloride induced dry eye mice model (1), phenol red thread tear test; assay type: in vivo, Male BALB/c mice; settings: 0.3% BAC day 1 to 7; eye drops 2, 5 or 10 μg/ml three times a day, day 8 to 19; topical, right eye
Protocol: Benzalkonium Chloride Induced Dry Eye Mice Model (1)
as §1, with “mice (6” for “mice (9”, “A (2, 5,” for “A (5,”, “day 8” for “day 15”
as §2, with “7, 11, 15, 19” for “14, 18, 20”, “2.” for “3.”

[3] = test system: Human Corneal Epithelial (HCE) cells; test: Benzalkonium chloride cell damage model in HCE cells (trypan blue cell count); assay type: cell-based; settings: HCE cells damaged with 0.0005% benzalkonium chloride for 24 hours, then 0.4, 2, 10 μg/ml compound for 48 hours
Protocol: Benzalkonium Chloride Cell Damage Model
The Human Corneal Epithelial (HCE) cells were seeded on a 6-well plate 5×10^5 cells with 10% FCS in DMEM/F12 for 24 hours. After cell attachment, medium was removed and changed into 0.0005% Benzalkonium chloride for 24 hours, then washed with PBS and treat with different concentrations 0.4, 2, 10 μg/ml of compound of Formula (I) (compound A) for 48 hours. At the end the cells were trypsinized and centrifuge 1000 rpm for 5 minutes, the supernatant was removed, added 1 ml of DMEM/F12 medium to resuspend the cells, followed by 0.4% trypan blue and the cell culture medium were 1:3 dilution, the number of cells were calculate under a microscope to observe the survivability of different concentrations treatment. The results are shown in FIG. 1. *P<0.05, **P<0.01 compared to the 0 μg/ml compound A group, Student's t-test. Data are expressed as mean±SD (n=3).

OC[C@H]1O[C@@H](Oc2c(O)cc(O)cc2/C=C/c2ccc(O)cc2)[C@H](O)[C@@H](O)[C@@H]1O [compound of Formula (I), 2,3,5,4′-tetrahydroxystilbene 2-O-β-D-glucopyranoside]
NGF expression level (NGF): increased the NGF gene expression level | tear secretion (BAC induced dry eye mice [1]): improves tear secretion | tear secretion (BAC induced dry eye mice [2]): restored tear secretion | cell viability after BAC damage [3]: increased cell viability
